Reference: US11608332B2, “FGFR4 inhibitor and preparation method and use thereof” (Jiangsu Hansoh Pharmaceutical Group Co., Ltd., priority 2016, dated 2023)

How the values were obtained:
Hep 3B cells = assay: Inhibition of Hep 3B cell proliferation (CellTiter-Glo); format: cell-based; conditions: Homo sapiens, Hep3B, 72 hours
Protocol: 3. Experiment on the Inhibition of Hep 3B Cell Proliferation
In this experiment, the inhibitory effect of the compounds on Hep 3B cell proliferation was tested by a CellTiter-Glo method, and the half maximal inhibitory concentration (IC50) of the compounds on the activity of cell proliferation was determined.
1) A 96-well cell culture plate was seeded with 50˜100 μL of Hep 3B cell suspension at a density of 1-5×10^4 cells/ml. The culture plate was incubated in an incubator for 16-24 hours (37° C., 5% CO2).
(§1) 2) Different concentrations of the test compound in a gradient dilution were added to the cells in the culture plate. The culture plate was incubated in an incubator for 72 hours (37° C., 5% CO2).
3) 50-100 μL of CellTiter-Glo reagent were added to each well. Then, the culture plate was shaken or left to stand for 5˜30 minutes at room temperature.
(§2) 4) The chemiluminescence signal values of each plate were determined by a microplate reader.
(§3) 5) The inhibition rates were calculated according to the chemiluminescence signal values.
6) The IC50 of the compound was obtained by curve fitting according to the inhibition rates at different concentrations, and the cell activity of the specific example compounds is shown in Table 2.

FGFR1 kinase = FGFR1 kinase (Homo sapiens (Human), UniProt P11362); assay: Enzymologic experiment of FGFR1 (TR-FRET); format: biochemical; conditions: TR-FRET kinase activity
Protocol: 2. Enzymologic Experiment of FGFR1
In this experiment, the inhibitory effect of the compounds on FGFR1 kinase activity was tested by a fluorescence resonance energy transfer (TR-FRET) method, and the half maximal inhibitory concentration (IC50) of the compounds on the FGFR1 kinase activity was determined.
1) 1˜5 μL of FGFR1 enzymatic solution was added to a 384-well plate, and the final concentration of the enzyme was 0.1˜5 nM.
2) 1˜5 μL of diluted solution in gradient of the compound was added.
3) 1˜5 μL of a substrate mixture containing substrate polypeptide with a final concentration of 5˜50 nM and ATP with a final concentration of 10˜200 μM was added.
4) The mixture was incubated for 0.5-3 hours at room temperature.
5) 10 μL of EDTA and a test solution comprising labeled antibody were added, and the plate was incubated for 1 hour at room temperature.
6) The fluorescence signal values of each plate were determined by a microplate reader at 665 nm.
7) The inhibition rates were calculated according to the fluorescence signal values.
The IC50 of the compound was obtained by curve fitting according to the inhibition rates at different concentrations, and the enzymatic activity of the specific example compounds is shown in Table 1.

SK-HEP-1 cells = assay: Inhibition of SK-HEP-1 cell proliferation (CellTiter-Glo); format: cell-based; conditions: Homo sapiens, SK-HEP1, 72 hours
Protocol: 5. Experiment on the Inhibition of SK-HEP-1 Cell Proliferation
In this experiment, the inhibitory effect of the compounds on SK-HEP-1 cell proliferation was tested by a CellTiter-Glo method, and the half maximal inhibitory concentration (IC50) of the compounds on the activity of cell proliferation was determined.
1) A 96-well cell culture plate was seeded with 50˜100 μL of SK-HEP-1 cell suspension at a density of 1-5×10^4 cells/ml. The culture plate was incubated in an incubator for 16˜24 hours (37° C., 5% CO2).
as §1
(§4) 3) 50˜100 μL of CellTiter-Glo reagent were added to each well. Then, the culture plate was shaken or left to stand for 5˜30 minutes at room temperature.
as §2, §3
The IC50 of the compound was obtained by curve fitting according to the inhibition rates at different concentrations, and the cell activity of the specific Example compounds is shown in Table 2.

[1] = Pharmacokinetic (PK) analysis in rats; format: in vivo, Sprague Dawley (SD) rats; conditions: SD rats, single intragastric administration, 5 mg/kg, plasma; for AUC(0-t) / AUC(0-inf) / half-life / MRT / Cmax: Sprague-Dawley, rat, po; for AUC(0-t): read-out: Area Under Curve AUC0-t; for AUC(0-inf): read-out: Area Under Curve AUC0-∞; for half-life: read-out: Half-Time t1/2 (converted); for MRT: read-out: Mean Residence Time MRT; for Cmax: read-out: Plasma Concentration Cmax
Protocol: 6. Pharmacokinetic (PK) Analysis in Rats
Mode of administration: a single intragastric administration.
Formulation: 0.5% CMC and 1% Tween 80, ultrasonic dissolution.
Sampling points: 0.5, 1, 2, 4, 6, 8 and 24 hours after administration.
1. 1.0 ml of intravenous blood was collected and placed in a K2EDTA test tube.
The blood was centrifuged at room temperature at the speed of 1000˜3000×g for 5˜20 minutes to isolate the plasma, which was then stored at −80° C. 2. 160 μL of acetonitrile were added to 40 μL of plasma sample for precipitation, and then the mixture was centrifuged at the speed of 500˜2000×g for 5˜20 minutes. 3. 100 μL of treated solution were taken, and the concentration of the test compound was analyzed by LC/MS/MS. The LC/MS/MS analytical instrument was AB Sciex API 4000.
Liquid Chromatography Analysis:
Condition of Liquid chromatography: Shimadzu LC-20AD pump
Chromatographic column: phenomenex Gemiu 5 um C18 50×4.6 mm
Mobile phase: Solution A is 0.1% aqueous formic acid solution, and solution B is acetonitrile
Elution time: 0-3.5 minutes, the eluent was as follows:
Mass spectrometry analysis:
Mass spectrometer setup conditions: positive ion electrospray ionization (ESI) mode.

HuH-7 cells = assay: Inhibition of HuH-7 cell proliferation (CellTiter-Glo); format: cell-based; conditions: Homo sapiens, 72 hours
Protocol: 4. Experiment on the Inhibition of HuH-7 Cell Proliferation
In this experiment, the inhibitory effect of the compounds on HuH-7 cell proliferation was tested by a CellTiter-Glo method, and the half maximal inhibitory concentration (IC50) of the compounds on the activity of cell proliferation was determined.
1) A 96-well cell culture plate was seeded with 50˜100 μL of HuH-7 cell suspension at a density of 1-5×10^4 cells/ml. The culture plate was incubated in an incubator for 16˜24 hours (37° C., 5% CO2).
as §1, §4, §2, §3
6) The IC50 of the compound was obtained by curve fitting according to the inhibition rates at different concentrations, and the cell activity of the specific Example compounds is shown in Table 2.

Chain of FGFR1 kinase (P11362 22-822): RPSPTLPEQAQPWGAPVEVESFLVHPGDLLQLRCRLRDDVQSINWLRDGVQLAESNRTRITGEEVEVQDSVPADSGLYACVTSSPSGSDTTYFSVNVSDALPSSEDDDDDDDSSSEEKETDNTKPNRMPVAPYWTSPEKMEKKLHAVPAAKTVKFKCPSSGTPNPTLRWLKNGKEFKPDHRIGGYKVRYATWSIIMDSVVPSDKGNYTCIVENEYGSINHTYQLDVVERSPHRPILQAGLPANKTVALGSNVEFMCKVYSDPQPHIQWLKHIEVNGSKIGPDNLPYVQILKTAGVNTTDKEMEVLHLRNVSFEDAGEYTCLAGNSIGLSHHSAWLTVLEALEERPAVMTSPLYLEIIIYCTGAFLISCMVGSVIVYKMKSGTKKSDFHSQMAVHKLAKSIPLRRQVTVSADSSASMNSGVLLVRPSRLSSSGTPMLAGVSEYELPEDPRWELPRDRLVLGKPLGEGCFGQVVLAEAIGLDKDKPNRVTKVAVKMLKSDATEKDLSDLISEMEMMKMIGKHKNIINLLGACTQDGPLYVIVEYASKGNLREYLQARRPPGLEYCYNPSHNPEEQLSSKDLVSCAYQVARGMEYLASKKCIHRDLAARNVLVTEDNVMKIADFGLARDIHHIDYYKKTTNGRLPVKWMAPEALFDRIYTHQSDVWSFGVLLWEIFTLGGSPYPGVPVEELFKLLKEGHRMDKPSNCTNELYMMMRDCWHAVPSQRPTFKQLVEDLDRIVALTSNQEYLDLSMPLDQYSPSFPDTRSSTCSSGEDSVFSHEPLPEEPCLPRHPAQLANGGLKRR

SMILES	IC50 (Hep 3B cells) [nM]	IC50 (FGFR1 kinase) [nM]	IC50 (SK-HEP-1 cells) [nM]	Peak Time tmax [1] [h]	AUC(0-t) [1] [ng·h/mL]	AUC(0-inf) [1] [ng·h/mL]	half-life [1] [h]	MRT [1] [h]	Cmax [1] [ng/mL]	IC50 (HuH-7 cells) [nM]
COCC(=O)N(C)Cc1cc2c(nc1C=O)N(C(=O)Nc1cc(N3CC[C@@H](OC)C3)c(C#N)cn1)CCC2 [Example 107, (R)—N-(5-Cyano-4-(3-methoxypyrrolidin-1-yl)pyridin-2-yl)-7-formyl-6-((2-methoxy-N-methylacetamido)methyl)-3,4-dihydro-1,8-naphthyridin-1(2H)-carboxamide]	1.6	> 10000	> 10000	4	2630	2670	1	2.8	1940	7.3
COC[C@@H](C)Nc1cc(NC(=O)N2CCCc3cc(CN(C)C(=O)[C@H]4CCCO4)c(C=O)nc32)ncc1C#N [Example 93, N-(5-Cyano-4-(((R)-1-methoxypropan-2-yl)amino)pyridin-2-yl)-7-formyl-6-(((R)—N-methyltetrahydrofuran-2-carboxamido)methyl)-3,4-dihydro-1,8-naphthyridin-1(2H)-carboxamide]	3.7	> 10000	> 10000	2	9420	9480	0.9	2.5	2860	5
COCCNc1cc(NC(=O)N2CCCc3cc(CN(C)C(=O)[C@H]4CCCO4)c(C=O)nc32)ncc1C#N [Example 1, (R)—N-(5-Cyano-4-((2-methoxyethyl)amino)pyridin-2-yl)-7-formyl-6-((N-methyltetrahydrofuran-2-carboxamido)methyl)-3,4-dihydro-1,8-naphthyridin-1(2H)-carb oxamide]	7.3	> 10000	> 10000	2	6800	6930	1.1	3.1	2070	11
COCCNc1cc(NC(=O)N2CCCc3cc(CN(C)C(=O)[C@@H]4CCCO4)c(C=O)nc32)ncc1C#N [Example 2, (S)—N-(5-Cyano-4-((2-methoxyethyl)amino)pyridin-2-yl)-7-formyl-6-((N-methyltetrahydrofuran-2-carboxamido)methyl)-3,4-dihydro-1,8-naphthyridin-1(2H)-carb oxamide]	5.3	> 10000	> 10000	2	5820	5900	1.2	2.5	2200	5.9
COCCNc1cc(NC(=O)N2CCCc3cc(CN(C)C(=O)C4CCOCC4)c(C=O)nc32)ncc1C#N [Example 98, N-(5-Cyano-4-((2-methoxyethyl)amino)pyridin-2-yl)-7-formyl-6-((N-methyltetrahydro-2H-pyran-4-carboxamido)methyl)-3,4-dihydro-1,8-naphthyridin-1(2H)-carboxamide]	2.7	> 10000	> 10000	2	6700	6840	0.9	3.1	2690	11.2
CO[C@@H]1CCN(Cc2cc3c(nc2C=O)N(C(=O)Nc2cc(N[C@@H]4CCOC4)c(C#N)cn2)CCC3)C1=O [Example 87, N-(5-Cyano-4-(((R)-tetrahydrofuran-3-yl)amino)pyridin-2-yl)-7-formyl-6-(((R)-3-methoxy-2-carbonylpyrrolidin-1-yl)methyl)-3,4-dihydro-1,8-naphthyridin-1(2H)-carboxamide]	2.2	> 10000	> 10000	2	12400	14700	1.2	2.6	3360	5.4
CO[C@@H]1CCN(c2cc(NC(=O)N3CCCc4cc(CN5CC[C@H](OC)C5=O)c(C=O)nc43)ncc2C#N)C1 [Example 54, N-(5-Cyano-4-((R)-3-methoxypyrrolidin-1-yl)pyridin-2-yl)-7-formyl-6-(((S)-3-methoxy-2-carbonylpyrrolidin-1-yl)methyl)-3,4-dihydro-1,8-naphthyridin-1(2H)-carboxamide]	4.4	> 10000	> 10000	2	7130	7870	1	2.7	2870	11.3
CO[C@H]1CCN(Cc2cc3c(nc2C=O)N(C(=O)Nc2cc(N[C@H]4CCOC4)c(C#N)cn2)CCC3)C1=O [Example 84, N-(5-Cyano-4-(((S)-tetrahydrofuran-3-yl)amino)pyridin-2-yl)-7-formyl-6-(((S)-3-methoxy-2-carbonylpyrrolidin-1-yl)methyl)-3,4-dihydro-1,8-naphthyridin-1(2H)-carboxamide]	2.4	> 10000	> 10000	2	8860	8950	0.9	3.1	2620	11
COCC(=O)N(C)Cc1cc2c(nc1C=O)N(C(=O)Nc1cc(N3CC[C@H](OC)C3)c(C#N)cn1)CCC2 [Example 106, (S)—N-(5-Cyano-4-(3-methoxypyrrolidin-1-yl)pyridin-2-yl)-7-formyl-6-((2-methoxy-N-methylacetamido)methyl)-3,4-dihydro-1,8-naphthyridin-1(2H)-carboxamide]	5.8	> 10000	> 10000							21.1
COCCNc1cc(NC(=O)N2CCCc3cc(CN(C[C@H]4CCCO4)C(C)=O)c(C=O)nc32)ncc1C#N [Example 109, (R)—N-(5-Cyano-4-((2-methoxyethyl)amino)pyridin-2-yl)-7-formyl-6-((N-((tetrahydrofuran-2-yl)methyl)acetamido)methyl)-3,4-dihydro-1,8-naphthyridin-1(2H)-carboxamide]	6	> 10000	> 10000							11.1
